Test results reported in patent publication US10174037B2, “Dihydropyrazolopyrimidinone compounds as PDE2 inhibitors” (Merck Sharp & Dohme Corp., priority 2015, dated 2019).
Like-named read-outs stand apart in the source and are kept apart here.

How the values were obtained:
Rhesus PDE2A3 = Rhesus PDE2A3 (Macaca mulatta, UniProt B3VTJ2); test: PDE2 fluorescence polarization (IMAP FP) assay, rhesus PDE2A3; assay type: biochemical, rhesus macaque
Procedure: A Labcyte Echo 555 (Labcyte, Sunnyvale, Calif.) is used to dispense 200 nL from each well of the titration plate to the 384 well assay plate. Ten microliters of a solution of enzyme (1/2000 final dilution from aliquots; sufficient to produce 20% substrate conversion) was added to the assay plate. Next 10 uL of a separate solution of the substrate FAM-labeled cAMP (50 nM final concentration product # R7506 from Molecular Devices) and the activator cGMP (1 uM final concentration), prepared in the assay buffer (10 mM Tris HCl, pH 7.2, 10 mM MgCl2, 0.05% NaN3 0.01% Tween-20, and 1 mM DTT) was added to the assay plate and shaken to mix. The reaction is allowed to proceed at room temperature for 60 minutes. A binding solution is then made from the kit components, comprised of 80% Solution A, 20% Solution B and binding reagent at a volume of 1/600 the total binding solution. The enzymatic reaction is stopped by addition of 60 μL of the binding solution to each well of the assay plates and the plates are sealed and shaken for 30 seconds. The plate was incubated at room temperature for at least one hour prior to determining the fluorescence polarization (FP). The parallel and perpendicular fluorescence of each well of the plate was measured using a Tecan Genios Pro plate reader (Tecan, Switzerland) or Perkin Elmer EnVision™ plate reader (Waltham, Mass.). Fluorescence polarization (mP) was calculated from the parallel (S) and perpendicular (P) fluorescence of each sample well and the analogous values for the median control well, containing only substrate (So and Po), using the following equation: Polarization (mP)=1000*(S/So−P/Po)/(S/So+P/Po).
Dose-inhibition profiles for each compound were characterized by fitting the mP data to a four-parameter equation given below.
An apparent (KM) for FAM-labeled cAMP of ˜10 uM was used.

human PDE2A1 = human PDE2A1 (Homo sapiens (Human), UniProt O00408); test: PDE selectivity IMAP FP assay, human PDE2A1; assay type: biochemical; conditions: Human PDE2
Sequence of human PDE2A1 (O00408 other isoform, or with tags, fused parts or gaps): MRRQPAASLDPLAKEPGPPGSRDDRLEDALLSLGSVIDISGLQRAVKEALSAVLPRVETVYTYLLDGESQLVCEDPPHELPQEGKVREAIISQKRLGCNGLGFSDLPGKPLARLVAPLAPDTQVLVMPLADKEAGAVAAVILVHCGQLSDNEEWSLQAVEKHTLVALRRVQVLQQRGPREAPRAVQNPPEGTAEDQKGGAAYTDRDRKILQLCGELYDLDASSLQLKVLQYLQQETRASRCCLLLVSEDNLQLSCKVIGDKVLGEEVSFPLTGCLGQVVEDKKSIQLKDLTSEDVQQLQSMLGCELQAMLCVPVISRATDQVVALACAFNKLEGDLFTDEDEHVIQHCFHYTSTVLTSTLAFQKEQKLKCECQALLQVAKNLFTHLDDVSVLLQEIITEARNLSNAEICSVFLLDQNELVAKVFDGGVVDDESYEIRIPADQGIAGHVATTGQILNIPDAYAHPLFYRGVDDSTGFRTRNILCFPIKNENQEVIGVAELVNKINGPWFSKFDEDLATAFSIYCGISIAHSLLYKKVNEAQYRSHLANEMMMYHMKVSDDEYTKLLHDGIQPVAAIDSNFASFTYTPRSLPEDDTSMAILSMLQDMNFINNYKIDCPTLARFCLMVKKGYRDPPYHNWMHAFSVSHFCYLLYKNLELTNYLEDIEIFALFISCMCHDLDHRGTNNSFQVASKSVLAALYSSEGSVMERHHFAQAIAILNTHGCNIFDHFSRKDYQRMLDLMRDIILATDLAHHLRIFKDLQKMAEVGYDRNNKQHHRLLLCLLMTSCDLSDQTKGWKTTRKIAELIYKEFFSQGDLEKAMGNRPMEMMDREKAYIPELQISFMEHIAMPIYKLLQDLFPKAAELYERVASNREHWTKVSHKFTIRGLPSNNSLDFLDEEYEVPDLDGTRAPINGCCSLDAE
In short: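 Compound titrations run against PDE2 in Tris HCl pH 7.2 buffer with MgCl2 and DTT for 60 min at room temperature, using 50 nM FAM-cAMP plus 1000 nM cGMP and enzyme giving 20% conversion.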

[1] = Lab B, read-out: Rhesus PDE2 Ki (nM) Lab B
[2] = Lab B, read-out: Human PDE2 Ki (nM) Lab B
[3] = Lab A, read-out: Rhesus PDE2 Ki (nM) Lab A

Sequence of Rhesus PDE2A3 (B3VTJ2 1-941): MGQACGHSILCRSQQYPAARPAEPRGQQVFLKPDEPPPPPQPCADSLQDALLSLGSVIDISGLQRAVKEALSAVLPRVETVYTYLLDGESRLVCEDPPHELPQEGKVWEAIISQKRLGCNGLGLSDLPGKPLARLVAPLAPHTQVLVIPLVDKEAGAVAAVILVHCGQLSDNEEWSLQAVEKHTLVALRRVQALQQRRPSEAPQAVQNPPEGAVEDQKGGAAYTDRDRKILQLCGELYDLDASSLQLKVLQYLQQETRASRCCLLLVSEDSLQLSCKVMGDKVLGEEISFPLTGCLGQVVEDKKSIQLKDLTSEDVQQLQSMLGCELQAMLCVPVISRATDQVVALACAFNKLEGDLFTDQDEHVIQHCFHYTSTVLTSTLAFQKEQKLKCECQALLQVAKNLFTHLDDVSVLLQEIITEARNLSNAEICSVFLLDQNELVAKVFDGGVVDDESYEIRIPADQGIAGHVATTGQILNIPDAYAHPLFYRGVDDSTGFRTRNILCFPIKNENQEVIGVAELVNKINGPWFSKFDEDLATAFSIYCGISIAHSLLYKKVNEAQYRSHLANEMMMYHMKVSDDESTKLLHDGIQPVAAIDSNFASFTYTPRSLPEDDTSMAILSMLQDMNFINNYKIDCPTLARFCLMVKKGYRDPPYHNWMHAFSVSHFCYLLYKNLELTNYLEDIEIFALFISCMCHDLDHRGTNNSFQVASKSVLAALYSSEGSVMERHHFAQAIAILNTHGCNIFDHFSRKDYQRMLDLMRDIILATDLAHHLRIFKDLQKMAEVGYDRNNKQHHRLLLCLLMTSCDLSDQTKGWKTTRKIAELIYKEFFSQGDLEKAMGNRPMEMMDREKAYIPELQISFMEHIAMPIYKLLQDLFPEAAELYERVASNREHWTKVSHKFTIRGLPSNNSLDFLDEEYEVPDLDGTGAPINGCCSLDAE

Row | Structure (SMILES) | Ki (Rhesus PDE2A3; [1]) | Ki (human PDE2A1; [2]) | Ki (Rhesus PDE2A3; [3]) | Ki (human PDE2A1; Lab A, read-out: Human PDE2 Ki (nM) Lab A)
1 | CC(C)C(c1ccc(C(F)(F)F)cc1)n1nc(C(F)F)c2c(=O)[nH]c(O)nc21 (single isomer, unassigned) [Example 281, (R)- or (S)-3-(Difluoromethyl)-6-hydroxy-1-(2-methyl-1-(4-(trifluoromethyl)phenyl)propyl)-1H-pyrazolo[3,4-d]pyrimidin-4(5H)-one] | 1.2 nM | 1.3 nM | – | –
2 | CC(c1ccc(OC(F)(F)F)c(F)c1)n1nc(C(F)F)c2c(=O)[nH]c(O)nc21 (single isomer, unassigned) [Example 287, (R)- or (S)-3-(Difluoromethyl)-1-(1-(3-fluoro-4-(trifluoromethoxy)phenyl)ethyl)-6-hydroxy-1H-pyrazolo[3,4-d]pyrimidin-4(5H)-one] | 44 nM | 38 nM | – | –
3 | CN(C)c1nc2c(c(CO)nn2C(c2ccc(OC(F)F)c(F)c2)C2CC2)c(=O)[nH]1 (single isomer, unassigned) [Example 122, (R)- or (S)-1-(Cyclopropyl(4-(difluoromethoxy)-3-fluorophenyl)methyl)-6-(dimethylamino)-3-(hydroxymethyl)-1H-pyrazolo[3,4-d]pyrimidin-4(5H)-one] | 0.37 nM | 0.3 nM | – | –
4 | CCC(c1ccc(C(F)(F)F)c(F)c1)n1nc(CO)c2c(=O)[nH]c(N(C)C)nc21 (single isomer, unassigned) [Example 145, (S)- or (R)-6-(Dimethylamino)-1-(1-(3-fluoro-4-(trifluoromethyl)phenyl)propyl)-3-(hydroxymethyl)-1H-pyrazolo[3,4-d]pyrimidin-4(5H)-one] | 0.13 nM | 0.11 nM | – | –
5 | O=c1[nH]c(O)nc2c1c(CC(F)(F)F)nn2C(c1ccc(OC(F)(F)F)cc1)C1CC1 (single isomer, unassigned) [Example 243, (S)- or (R)-1-(Cyclopropyl(4-(trifluoromethoxy)phenyl)methyl)-6-hydroxy-3-(2,2,2-trifluoroelhyl)-1H-pyrazolo[3,4-d]pyrimidin-4(5H)-one] | 191 nM | – | – | –
6 | N#CCc1nn(C(c2ccc(C(F)(F)F)cc2)C2CC2)c2nc(O)[nH]c(=O)c12 (single isomer, unassigned) [Example 297] | 207 nM | – | – | –
7 | CC1(C(c2ccc(C(F)(F)F)cc2)n2nc(CC(F)(F)F)c3c(=O)[nH]c(O)nc32)CC1 (single isomer, unassigned) [Example 245, (S)- or (R)-6-Hydroxy-l-((1-methylcyclopropyl)(4-(trifluoromethyl)phenyl)methyl)-3-(2,2,2-trifluoroethyl)-1H-pyrazolo[3,4-d]pyrimidin-4(5H)-one] | 698 nM | – | – | –
8 | CC(C)C(c1ccc(OC(F)(F)F)c(F)c1)n1nc(CC(F)(F)F)c2c(=O)[nH]c(O)nc21 (single isomer, unassigned) [Example 265, (S)- or (R)-1-(1-(3-Fluoro-4-(trifluoromethoxy)phenyl)-2-methylpropyl)-6-hydroxy-3-(2,2,2-trifluoroethyl)-1H-pyrazolo[3,4-d]pyrimidin-4(5H)-one] | 276 nM | – | – | –
9 | O=c1[nH]c(O)nc2c1c(CC(F)(F)F)nn2C(c1ccc(OC(F)(F)F)cc1)C1CC1 (single isomer, unassigned) [Example 242, (R)- or (S)-1-(Cyclopropyl(4-(trifluoromethoxy)phenyl)methyl)-6-hydroxy-3-(2,2,2-trifluoroelhyl)-1H-pyrazolo[3,4-d]pyrimidin-4(5H)-one] | 150 nM | – | – | –
10 | CC(C)(C)C(c1ccc(C(F)(F)F)c(F)c1)n1nc(CO)c2c(=O)[nH]c(O)nc21 (single isomer, unassigned) [Example 25] | 238 nM | – | – | –
11 | C[C@H](c1ccc(C(F)(F)F)c(F)c1)n1nc(CF)c2c(=O)[nH]c(O)nc21 (mixture of isomers) [Example 35, (R)- and (S)-1-(1-(3-Fluoro-4-(trifluoromethyl)phenyl)ethyl)-3-(fluoromethyl)-6-hydroxy-H-pyrazolo[3,4-d]pyrimidin-4(5H)-one] | 209 nM | – | – | –
12 | CC(c1ccc(OC(F)(F)F)c(F)c1)n1nc(CC#N)c2c(=O)[nH]c(O)nc21 (single isomer, unassigned) [Example 300, (S)- or (R)-2-(1-(1-(3-Fluoro-4-(trifluoromethoxy)phenyl)ethyl)-6-hydroxy-4-oxo-4,5-dihydro-1H-pyrazolo[3,4-d]pyrimidin-3-yl)acetonitrile] | 101 nM | – | – | –

The next lines start with the values.

Row | Ki (Rhesus PDE2A3; [1]) | Ki (human PDE2A1; [2]) | Ki (Rhesus PDE2A3; [3]) | Ki (human PDE2A1; Lab A, read-out: Human PDE2 Ki (nM) Lab A) | Structure (SMILES)
13 | 0.058 nM | 0.042 nM | – | – | CN(C)c1nc2c(c(CF)nn2C(c2ccc(C(F)(F)F)cc2F)C2CC2)c(=O)[nH]1 (single isomer, unassigned) [Example 202, (R)- or (S)-1-(Cyclopropyl(2-fluoro-4-(trifluoromethyl)phenyl)methyl)-6-(dimethylamino)-3-(fluoromethyl)-1H-pyrazolo[3,4-d]pyrimidin-4(5H)-one]
14 | 0.31 nM | 0.34 nM | – | – | CC(C)C(c1ccc(OC(F)F)cc1)n1nc(CO)c2c(=O)[nH]c(N(C)C)nc21 (single isomer, unassigned) [Example 121]
15 | 18 nM | 17 nM | 11 nM | 6.5 nM | CC(c1ccc(OC(F)(F)F)cc1)n1nc(CF)c2c(=O)[nH]c(O)nc21 (stereo not shown) [Example 36, 3-(Fluoromethvl)-6-hydroxy-1-(1-(4-(trifluoromethoxy)phenyl)ethyl)-1H-pyrazolo[3,4-d]pyrimidin-4(5H)-one]
16 | 0.57 nM | 0.55 nM | – | – | C[C@@H](c1ccc(C(F)(F)F)cc1)n1nc(CO)c2c(=O)[nH]c(N(C)C)nc21 [Example 154, (S)-6-(Dimethylamino)-3-(hydroxymethyl)-1-(1-(4-(trifluoromethyl)phenyl)ethyl)-1H-pyrazolo[3,4-d]pyrimidin-4(5H)-one]
17 | 3.3 nM | 2.6 nM | – | – | CC(c1ccc(OC(F)(F)F)cc1)n1nc(CO)c2c(=O)[nH]c(N(C)C)nc21 (single isomer, unassigned) [Example 148, (R)- or (S)-6-(Dimethylamino)-3-(hydroxymethyl)-1-(1-(4-(trifluoromethoxy)phenyl)ethyl)-1H-pyrazolo[3,4-d]pyrimidin-4(5H)-one]
18 | 0.7 nM | 0.73 nM | – | – | CCC(c1ccc(OC(F)F)cc1)n1nc(CO)c2c(=O)[nH]c(N(C)C)nc21 (single isomer, unassigned) [Example 124, (R)- or (S)-1-(1-(4-(Difluoromethoxy)phenyl)propyl)-6-(dimethylamino)-3-(hydroxymethyl)-1H-pyrazolo[3,4-d]pyrimidin-4(5H)-one]
19 | 0.2 nM | 0.099 nM | – | – | CC(c1ccc(C(F)(F)F)c(F)c1)n1nc(CF)c2c(=O)[nH]c(N(C)C)nc21 (single isomer, unassigned) [Example 169, (S)- or (R)-6-(Dimethylamino)-1-(1-(3-fluoro-4-(trifluoromethyl)phenyl)ethyl)-3-(fluoromethyl)-1H-pyrazolo[3,4-d]pyrimidin-4(5H)-one]
20 | 0.44 nM | 0.39 nM | – | – | CN(C)c1nc2c(c(CO)nn2C(c2ccc(CC(F)(F)F)c(F)c2)C2CC2)c(=O)[nH]1 (single isomer, unassigned) [Example 95, (S)- or (R)-1-(Cyclopropyl(3-fluoro-4-(2,2,2-trifluoroethyl)phenyl)methyl)-6-(dimethylamino)-3-(hydroxymethyl)-1H-pyrazolo[3,4-d]pyrimidin-4(5H)-one]
21 | 410 nM | – | – | – | O=c1[nH]c(O)nc2c1c(CO)nn2C(c1ccc(C(F)(F)F)cc1)C1CC1 (single isomer, unassigned) [Example 14]
22 | 364 nM | – | – | – | CC(c1ccc(C(F)(F)F)c(F)c1)n1nc(CO)c2c(=O)[nH]c(O)nc21 (single isomer, unassigned) [Example 2]
23 | 249 nM | – | 145 nM | – | CC(c1ccc(OC(F)(F)F)c(F)c1)n1nc(CO)c2c(=O)[nH]c(O)nc21 (single isomer, unassigned) [Example 10]
24 | 34 nM | – | 14 nM | – | CC(c1ccc(OC(F)(F)F)c(F)c1)n1nc(CO)c2c(=O)[nH]c(O)nc21 (single isomer, unassigned) [Example 11]
25 | 0.5 nM | – | – | – | CC(C)C(c1ccc(C(F)(F)F)c(F)c1)n1nc(CF)c2c(=O)[nH]c(N(C)C)nc21 (single isomer, unassigned) [Example 220, (R)- or (S)-6-(Dimethylamino)-1-(1-(3-fluoro-4-(trifluoromethyl)phenyl)-2-methylpropyl)-3-(fluoromethyl)-1H-pyrazolo[3,4-d]pyrimidin-4(5H)-one]
26 | 910 nM | – | – | – | CC(C)(C)C(c1ccc(C(F)(F)F)cc1)n1nc(CF)c2c(=O)[nH]c(O)nc21 (single isomer, unassigned) [Example 52]
27 | – | – | 411 nM | – | Cc1ccc(C(C)n2nc(CO)c3c(=O)[nH]c(O)nc32)cc1 (stereo not shown) [Example 8]
